Measured values taken from patent US12661345B2, “Compositions for the treatment of hypertension” (The George Institute for Global Health, priority 2017, dated 2026).

Test system: participants with migraine
Assay: Safety: serious adverse events and adverse events of special interest in the 3×3 factorial trial
[1] = Anytime between Week 0 to Week 12, % of participants
[2] = Anytime between Week 0 to Week 12, n/N participants
[3] = Randomization, % of participants
[4] = Randomization, n/N participants

CCC(C)(C)C(=O)O[C@H]1C[C@@H](C)C=C2C=C[C@H](C)[C@H](CC[C@@H]3C[C@@H](O)CC(=O)O3)[C@H]21 [Simvastatin, simvastatin] was tested, and the “Subjects with any serious adverse event (SAE) in 12 weeks (n/N)” value (12 weeks) was 0/9, the “Subjects with any serious adverse event (SAE) in 12 weeks (percent)” value (12 weeks) was 0.0% and the “Any SAEs” value [1] was “(0.0%)”. The Bradycardia [1] was “(0.0%)”, the Falls [1] was “(0.0%)” and the Feeling faint/dizziness [1] was “(33.3%)”. The Flushing [1] was “(11.1%)”, the Gastrointestinal complaints [1] was “(22.2%)” and the Gout [1] was “(0.0%)”. The Headache [1] was “(100.0%)”, the Insomnia [1] was “(22.2%)” and the Muscle cramps [1] was “(11.1%)”. For the same molecule, the Myalgia [1] was “(0.0%)”, the Nightmares [1] was “(11.1%)” and the Pedal edema [1] was “(0.0%)”. For the same molecule, the Skin rash/itching [1] was “(11.1%)”, the Syncope [1] was “(0.0%)” and the “Any SAEs” value [2] was 0/9. For the same molecule, the Bradycardia [2] was 0/9, the Falls [2] was 0/9 and the Feeling faint/dizziness [2] was 3/9. The Flushing [2] was 1/9, the Gastrointestinal complaints [2] was 2/9 and the Gout [2] was 0/9. For the same molecule, the Headache [2] was 9/9, the Insomnia [2] was 2/9 and the Muscle cramps [2] was 1/9. For the same molecule, the Myalgia [2] was 0/9, the Nightmares [2] was 1/9 and the Pedal edema [2] was 0/9. The Skin rash/itching [2] was 1/9, the Syncope [2] was 0/9 and the “Any SAEs since the last visit?” value [3] was “(0.0%)”. For the same molecule, the Bradycardia [3] was “(0.0%)”, the Falls [3] was “(11.1%)” and the Feeling faint/dizziness [3] was “(22.2%)”. For the same molecule, the Flushing [3] was “(33.3%)”, the Gastrointestinal complaints [3] was “(0.0%)” and the Gout [3] was “(0.0%)”. For the same molecule, the Headache [3] was “(100.0%)”, the Insomnia [3] was “(22.2%)” and the Muscle cramps [3] was “(22.2%)”. For the same molecule, the Myalgia [3] was “(0.0%)”, the Nightmares [3] was “(11.1%)” and the Pedal edema [3] was “(0.0%)”. The Skin rash/itching [3] was “(0.0%)”, the Syncope [3] was “(0.0%)” and the “Any SAEs since the last visit?” value [4] was 0/9. The Bradycardia [4] was 0/9, the Falls [4] was 1/9 and the Feeling faint/dizziness [4] was 2/9. The Flushing [4] was 3/9, the Gastrointestinal complaints [4] was 0/9 and the Gout [4] was 0/9. The Headache [4] was 9/9, the Insomnia [4] was 2/9 and the Muscle cramps [4] was 2/9. The Myalgia [4] was 0/9, the Nightmares [4] was 1/9 and the Pedal edema [4] was 0/9. For the same molecule, the Skin rash/itching [4] was 0/9, the Syncope [4] was 0/9 and the “Any SAEs since the last visit?” value (Week 4, % of participants) was “(0.0%)”. For the same molecule, the Bradycardia (Week 4, % of participants) was “(0.0%)”, the Falls (Week 4, % of participants) was “(0.0%)” and the Feeling faint/dizziness (Week 4, % of participants) was “(22.2%)”. For the same molecule, the Flushing (Week 4, % of participants) was “(11.1%)”, the Gastrointestinal complaints (Week 4, % of participants) was “(11.1%)” and the Gout (Week 4, % of participants) was “(0.0%)”. The Headache (Week 4, % of participants) was “(100.0%)”, the Insomnia (Week 4, % of participants) was “(22.2%)” and the Muscle cramps (Week 4, % of participants) was “(0.0%)”. For the same molecule, the Myalgia (Week 4, % of participants) was “(0.0%)”, the Nightmares (Week 4, % of participants) was “(0.0%)” and the Pedal edema (Week 4, % of participants) was “(0.0%)”. The Skin rash/itching (Week 4, % of participants) was “(0.0%)”, the Syncope (Week 4, % of participants) was “(0.0%)” and the “Any SAEs since the last visit?” value (Week 4, n/N participants) was 0/9. For the same molecule, the Bradycardia (Week 4, n/N participants) was 0/9, the Falls (Week 4, n/N participants) was 0/9 and the Feeling faint/dizziness (Week 4, n/N participants) was 2/9. For the same molecule, the Flushing (Week 4, n/N participants) was 1/9, the Gastrointestinal complaints (Week 4, n/N participants) was 1/9 and the Gout (Week 4, n/N participants) was 0/9. The Headache (Week 4, n/N participants) was 9/9, the Insomnia (Week 4, n/N participants) was 2/9 and the Muscle cramps (Week 4, n/N participants) was 0/9. The Myalgia (Week 4, n/N participants) was 0/9, the Nightmares (Week 4, n/N participants) was 0/9 and the Pedal edema (Week 4, n/N participants) was 0/9. For the same molecule, the Skin rash/itching (Week 4, n/N participants) was 0/9, the Syncope (Week 4, n/N participants) was 0/9 and the “Any SAEs since the last visit?” value (Week 8, % of participants) was “(0.0%)”. For the same molecule, the Bradycardia (Week 8, % of participants) was “(0.0%)”, the Falls (Week 8, % of participants) was “(0.0%)” and the Feeling faint/dizziness (Week 8, % of participants) was “(11.1%)”. The Flushing (Week 8, % of participants) was “(11.1%)”, the Gastrointestinal complaints (Week 8, % of participants) was “(11.1%)” and the Gout (Week 8, % of participants) was “(0.0%)”. For the same molecule, the Headache (Week 8, % of participants) was “(88.9%)”, the Insomnia (Week 8, % of participants) was “(22.2%)” and the Muscle cramps (Week 8, % of participants) was “(0.0%)”. The Myalgia (Week 8, % of participants) was “(0.0%)”, the Nightmares (Week 8, % of participants) was “(0.0%)” and the Pedal edema (Week 8, % of participants) was “(0.0%)”. The Skin rash/itching (Week 8, % of participants) was “(0.0%)”, the Syncope (Week 8, % of participants) was “(0.0%)” and the “Any SAEs since the last visit?” value (Week 8, n/N participants) was 0/9. The Bradycardia (Week 8, n/N participants) was 0/9, the Falls (Week 8, n/N participants) was 0/9 and the Feeling faint/dizziness (Week 8, n/N participants) was 1/9. The Flushing (Week 8, n/N participants) was 1/9, the Gastrointestinal complaints (Week 8, n/N participants) was 1/9 and the Gout (Week 8, n/N participants) was 0/9. The Headache (Week 8, n/N participants) was 8/9, the Insomnia (Week 8, n/N participants) was 2/9 and the Muscle cramps (Week 8, n/N participants) was 0/9. The Myalgia (Week 8, n/N participants) was 0/9, the Nightmares (Week 8, n/N participants) was 0/9 and the Pedal edema (Week 8, n/N participants) was 0/9. For the same molecule, the Skin rash/itching (Week 8, n/N participants) was 0/9, the Syncope (Week 8, n/N participants) was 0/9 and the “Any SAEs since the last visit?” value (Week 12, % of participants) was “(0.0%)”. For the same molecule, the Bradycardia (Week 12, % of participants) was “(0.0%)”, the Falls (Week 12, % of participants) was “(0.0%)” and the Feeling faint/dizziness (Week 12, % of participants) was “(0.0%)”. The Flushing (Week 12, % of participants) was “(0.0%)”, the Gastrointestinal complaints (Week 12, % of participants) was “(22.2%)” and the Gout (Week 12, % of participants) was “(0.0%)”. The Headache (Week 12, % of participants) was “(88.9%)”, the Insomnia (Week 12, % of participants) was “(22.2%)” and the Muscle cramps (Week 12, % of participants) was “(11.1%)”. For the same molecule, the Myalgia (Week 12, % of participants) was “(0.0%)”, the Nightmares (Week 12, % of participants) was “(11.1%)” and the Pedal edema (Week 12, % of participants) was “(0.0%)”. The Skin rash/itching (Week 12, % of participants) was “(11.1%)”, the Syncope (Week 12, % of participants) was “(0.0%)” and the “Any SAEs since the last visit?” value (Week 12, n/N participants) was 0/9. The Bradycardia (Week 12, n/N participants) was 0/9, the Falls (Week 12, n/N participants) was 0/9 and the Feeling faint/dizziness (Week 12, n/N participants) was 0/9. The Flushing (Week 12, n/N participants) was 0/9, the Gastrointestinal complaints (Week 12, n/N participants) was 2/9 and the Gout (Week 12, n/N participants) was 0/9. The Headache (Week 12, n/N participants) was 8/9, the Insomnia (Week 12, n/N participants) was 2/9 and the Muscle cramps (Week 12, n/N participants) was 1/9. For the same molecule, the Myalgia (Week 12, n/N participants) was 0/9, the Nightmares (Week 12, n/N participants) was 1/9 and the Pedal edema (Week 12, n/N participants) was 0/9. The Skin rash/itching (Week 12, n/N participants) was 1/9, the Syncope (Week 12, n/N participants) was 0/9 and the “Any SAEs since the last visit?” value (Week 13, % of participants) was “(0.0%)”. For the same molecule, the Bradycardia (Week 13, % of participants) was “(0.0%)”, the Falls (Week 13, % of participants) was “(0.0%)” and the Feeling faint/dizziness (Week 13, % of participants) was “(11.1%)”. The Flushing (Week 13, % of participants) was “(0.0%)”, the Gastrointestinal complaints (Week 13, % of participants) was “(11.1%)” and the Gout (Week 13, % of participants) was “(0.0%)”. For the same molecule, the Headache (Week 13, % of participants) was “(100.0%)”, the Insomnia (Week 13, % of participants) was “(11.1%)” and the Muscle cramps (Week 13, % of participants) was “(22.2%)”. The Myalgia (Week 13, % of participants) was “(11.1%)”, the Nightmares (Week 13, % of participants) was “(11.1%)” and the Pedal edema (Week 13, % of participants) was “(0.0%)”. The Rebound hypertension (Week 13, % of participants) was “(0.0%)”, the Skin rash/itching (Week 13, % of participants) was “(11.1%)” and the Syncope (Week 13, % of participants) was “(0.0%)”. For the same molecule, the “Any SAEs since the last visit?” value (Week 13, n/N participants) was 0/9, the Bradycardia (Week 13, n/N participants) was 0/9 and the Falls (Week 13, n/N participants) was 0/9. The Feeling faint/dizziness (Week 13, n/N participants) was 1/9, the Flushing (Week 13, n/N participants) was 0/9 and the Gastrointestinal complaints (Week 13, n/N participants) was 1/9. The Gout (Week 13, n/N participants) was 0/9, the Headache (Week 13, n/N participants) was 9/9 and the Insomnia (Week 13, n/N participants) was 1/9. For the same molecule, the Muscle cramps (Week 13, n/N participants) was 2/9, the Myalgia (Week 13, n/N participants) was 1/9 and the Nightmares (Week 13, n/N participants) was 1/9. The Pedal edema (Week 13, n/N participants) was 0/9, the Rebound hypertension (Week 13, n/N participants) was 0/9 and the Skin rash/itching (Week 13, n/N participants) was 1/9. For the same molecule, the Syncope (Week 13, n/N participants) was 0/9, the “Any SAEs since the last visit?” value (Week 16, % of participants) was “(11.1%)” and the Bradycardia (Week 16, % of participants) was “(0.0%)”. The Falls (Week 16, % of participants) was “(11.1%)”, the Feeling faint/dizziness (Week 16, % of participants) was “(22.2%)” and the Headache (Week 16, % of participants) was “(77.8%)”. For the same molecule, the Muscle cramps (Week 16, % of participants) was “(0.0%)”, the Pedal edema (Week 16, % of participants) was “(0.0%)” and the Syncope (Week 16, % of participants) was “(0.0%)”. The “Any SAEs since the last visit?” value (Week 16, n/N participants) was 1/9, the Bradycardia (Week 16, n/N participants) was 0/9 and the Falls (Week 16, n/N participants) was 1/9. For the same molecule, the Feeling faint/dizziness (Week 16, n/N participants) was 2/9, the Headache (Week 16, n/N participants) was 7/9 and the Muscle cramps (Week 16, n/N participants) was 0/9. For the same molecule, the Pedal edema (Week 16, n/N participants) was 0/9 and the Syncope (Week 16, n/N participants) was 0/9.
